Like-named read-outs stand apart in the source and are kept apart here.
Experiments:
[1] = test system: mitochondrial membrane potential (MMP) in AREc32 cells; assay: Disruption of mitochondrial membrane potential (m-MPI red/green ratio), MitoOxTox; details: for MMP inhibition activity (in words): MitoOxTox, AREc32; for EC10: MMP, AREc32, 24 h
AREc32 cells [2] = test system: AREc32 cells
[3] = test system: Nrf2-mediated oxidative stress response pathway (ARE) in AREc32 cells
AREc32 cells [4] = test system: AREc32 cells; remark: listed apart in the source
[5] = test system: mitochondrial membrane potential (MMP) in AREc32 cells
[6] = test system: mitochondrial membrane potential (MMP) in HepG2 cells; details: cited from earlier work; for MMP inhibition activity (in words): Tox21 MMP assay, HepG2
[7] = experimental; ref PhysPropNCCT; cited from earlier work
[8] = test system: Nrf2-mediated oxidative stress response pathway (ARE) in AREc32 cells; assay: cells; details: Arec32, 24 h, read-out: Oxidative stress response ECIR1.5 (M)
AREc32 cells [9] = assay: Cytotoxicity with ImageXpress high-content imaging, MitoOxTox; details: AREc32, 24 h exposure; for Cytotoxicity ImageExpress IC10: 10% reduction in cell viability; for Cytotoxicity ImageExpress log(IC10 (M)): logarithm of IC10, Corning plates
AREc32 cells [10] = assay: Cytotoxicity (cell confluency) with IncuCyte S3 live cell imaging, MitoOxTox; details: AREc32, 24 h exposure; for Cytotoxicity Incucyte IC10: 10% reduction in cell viability
[11] = test system: oxidative stress response in AREc32 cells; design: method as in Escher et al. 42; details: original AREc32 reporter gene assay; ref Escher et al. 42; cited from earlier work
[12] = ref Cessna et al. 1978; cited from earlier work
[13] = 10% reduction of MMP, AREc32, 24 h exposure
[14] = logarithm of EC10, AREc32, 24 h exposure
[15] = effect concentration leading to induction ratio 1.5, AREc32, 24 h exposure

Compound: CNC(=O)/C(=N/OC)c1ccccc1COc1cc(C)ccc1C [Dimoxystrobin]
- MMP inhibition EC10 [1, 13]: 0.439 µM
- MMP inhibition log(EC10 (M)) [1, 14]: -6.36 M
- Cytotoxicity Incucyte IC10 (AREc32 cells [2]): 129 µM
- Oxidative stress response ECIR1.5 [3, 15]: > 206 µM
- Cytotoxicity ImageExpress IC10 (AREc32 cells [4]): 142 µM
- Cytotoxicity ImageExpress log(IC10 (M)) (AREc32 cells [4]): -3.85 M
- SRcytotoxicity [5]: 324

Compound: O=C(Nc1ccccc1-c1ccc(Cl)cc1)c1cccnc1Cl [Boscalid]
- MMP inhibition EC10 [1, 13]: > 83.2 µM
- MMP inhibition EC10 (M) ([1]; 10% reduction of MMP, AREc32, 24 h exposure, listed as boscalid): > 8.32 × 10^–5 M
- MMP inhibition activity (in words) [1]: inactive
- MMP inhibition log(EC10 (M)) [1, 14]: no Effect
- Cytotoxicity Incucyte log(IC10 (M)) (AREc32 cells [2]): no cytotoxicity
- Cytotoxicity Incucyte IC10 (AREc32 cells [2]; human, 24 h): > 83.2 µM
- MMP inhibition activity (in words) [6]: inactive
- log Kow [L/L] [7]: 2.96 L/L
- Cytotoxicity ImageExpress log(IC10 (M)) (AREc32 cells [4]): no cytotoxicity
- Cytotoxicity ImageExpress IC10 (AREc32 cells [4]; human, 24 h): > 83.2 µM
- EC (induction ratio 1.5) [8]: > 8.32e-05 M

Compound: Tributyltin chloride
- MMP inhibition EC10 [1]: 0.0145 µM
- MMP inhibition log(EC10 (M)) [1]: -7.84 M
- Oxidative stress response ECIR1.5 [3]: > 1.23 µM

Compound: CCC/C=C/C=C/C(=O)O[C@H]1/C(=C/C(=O)OC)C[C@H]2C[C@H]([C@@H](C)O)OC(=O)C[C@H](O)C[C@@H]3C[C@H](OC(C)=O)C(C)(C)[C@](O)(C[C@@H]4C/C(=C/C(=O)OC)C[C@H](/C=C/C(C)(C)[C@]1(O)O2)O4)O3 [bryostatin 1]
- EC50 ([6]; HepG2 cells, 1 h of exposure, read-out: EC50 (decrease of MMP)): 0.0096 µM

Compound: CO/C=C(/C(=O)OC)c1ccccc1COc1cccc(C(F)(F)F)n1 [Picoxystrobin]
- MMP inhibition EC10 [1, 13]: 1.35 µM
- MMP inhibition log(EC10 (M)) [1, 14]: -5.87 M
- Cytotoxicity ImageExpress IC10 (AREc32 cells [9]): 80.1 µM
- Cytotoxicity ImageExpress log(IC10 (M)) (AREc32 cells [9]): -4.10 M
- Oxidative stress response ECIR1.5 [3, 15]: > 139 µM
- SRcytotoxicity [5]: 59.5
- Cytotoxicity Incucyte IC10 (AREc32 cells [10]): 77.7 µM

Compound: CC(C)(C)c1ccc(CCOc2ncnc3ccccc23)cc1 [Fenazaquin]
- MMP inhibition EC10 [1, 13]: 0.0118 µM
- MMP inhibition activity (in words) [1]: active
- MMP inhibition log(EC10 (M)) [1, 14]: -7.93 M
- Cytotoxicity ImageExpress IC10 (AREc32 cells [9]): 110 µM
- Cytotoxicity ImageExpress log(IC10 (M)) (AREc32 cells [9]): -3.96 M
- MMP inhibition activity (in words) [6]: only active in the MitoOxTox assay
- log Kow [L/L] [7]: 5.51 L/L
- EC (induction ratio 1.5) [8]: > 0.000314 M
- SRcytotoxicity ([5]; human): 9356
- Cytotoxicity Incucyte IC10 (AREc32 cells [10]): 100 µM

Compound: CC(C)(C)c1cc(O)ccc1O [tBHQ, tert-butylhydroquinone]
- ECIR1.5 [11]: 1.32 µM
- ECIR1.5 ([3]; current study, multiplexed MitoOxTox, AREc32): 3.14 µM

Compound: O=[N+]([O-])c1ccc(O)c([N+](=O)[O-])c1 [2,4-Dinitrophenol]
- MMP inhibition EC10 [1, 13]: 12.1 µM
- MMP inhibition log(EC10 (M)) [1, 14]: -4.92 M
- Cytotoxicity Incucyte IC10 (AREc32 cells [2]; human): 281 µM
- log Kow [L/L] [7]: 1.67 L/L
- activation of the oxidative stress response (in words) ([3]; AREc32): activated
- Cytotoxicity ImageExpress IC10 (AREc32 cells [4]; human): 426 µM
- Cytotoxicity ImageExpress log(IC10 (M)) (AREc32 cells [4]; human): -3.37 M
- EC (induction ratio 1.5) [8]: 0.000156 M
- SRcytotoxicity ([5]; human): 35.1

Compound: CO/C=C(/C(=O)OC)c1ccccc1Oc1cc(Oc2ccccc2C#N)ncn1 [Azoxystrobin]
- MMP inhibition EC10 [1, 13]: 15.9 µM
- MMP inhibition log(EC10 (M)) [1, 14]: -4.80 M
- Cytotoxicity ImageExpress IC10 (AREc32 cells [9]): > 105 µM
- Cytotoxicity ImageExpress log(IC10 (M)) (AREc32 cells [9]): no cytotoxicity
- log Kow [L/L] [7]: 2.50 L/L
- Oxidative stress response ECIR1.5 [3, 15]: > 105 µM
- Cytotoxicity Incucyte IC10 (AREc32 cells [10]): > 105 µM
- Cytotoxicity Incucyte log(IC10 (M)) (AREc32 cells [10]; logarithm of IC10, Corning plates): no cytotoxicity

Compound: N#Cc1cc(Br)c(O)c(Br)c1 [Bromoxynil]
- pKa (Acid) [12]: 4.21
- MMP inhibition EC10 [1, 13]: 21.9 µM
- MMP inhibition log(EC10 (M)) [1, 14]: -4.66 M

Compound: Oligomycin A
- MMP inhibition EC10 [1, 13]: 0.000235 µM
- EC10 [1]: 0.00024 µM
- MMP inhibition log(EC10 (M)) [1, 14]: -9.63 M
- Oxidative stress response ECIR1.5 [3, 15]: > 12.7 µM

Compound: CC1=C(C(=O)Nc2ccccc2)SCCO1 [Carboxin]
- MMP inhibition EC10 [1, 13]: 152 µM
- EC10 [1]: 152 µM
- MMP inhibition log(EC10 (M)) [1, 14]: -3.82 M
- Cytotoxicity Incucyte IC10 (AREc32 cells [2]; human, 24 h): 1080 µM
- log Kow [L/L] [7]: 2.14 L/L
- activation of the oxidative stress response (in words) ([3]; AREc32): activated
- Cytotoxicity ImageExpress log(IC10 (M)) (AREc32 cells [4]): no cytotoxicity
- Cytotoxicity ImageExpress IC10 (AREc32 cells [4]; human, 24 h): > 429 µM
- EC (induction ratio 1.5) [8]: 0.00014 M

Compound: C=C(C)[C@H]1Cc2c(ccc3c2O[C@@H]2COc4cc(OC)c(OC)cc4[C@@H]2C3=O)O1 [Rotenone]
- MMP inhibition EC10 [1, 13]: 0.00531 µM
- MMP inhibition log(EC10 (M)) [1, 14]: -8.27 M
- Cytotoxicity Incucyte IC10 (AREc32 cells [2]; human): 0.212 µM
- log Kow [L/L] [7]: 4.1 L/L
- Cytotoxicity ImageExpress IC10 (AREc32 cells [4]; human): 0.242 µM
- Cytotoxicity ImageExpress log(IC10 (M)) (AREc32 cells [4]; human): -6.62 M
- EC (induction ratio 1.5) [8]: > 6.57e-07 M
- SRcytotoxicity ([5]; human): 46

Compound: Oc1c(Cl)c(Cl)c(Cl)c(Cl)c1Cl [Pentachlorophenol]
- MMP inhibition EC10 [1]: 11.2 µM
- MMP inhibition log(EC10 (M)) [1]: -4.95 M
- Cytotoxicity Incucyte IC10 (AREc32 cells [2]; human): 67.9 µM
- activation of the oxidative stress response (in words) [3]: activated
- SRcytotoxicity (oxidative stress response) ([3]; human): 6.6
- Cytotoxicity ImageExpress IC10 (AREc32 cells [4]; human): 74.4 µM
- Cytotoxicity ImageExpress log(IC10 (M)) (AREc32 cells [4]; human): -4.13 M
- EC (induction ratio 1.5) [8]: 6.91e-05 M
- SRcytotoxicity ([5]; human): 6.6

Compound: CC(C)Oc1cccc(NC(=O)c2ccccc2C(F)(F)F)c1 [Flutolanil]
- MMP inhibition EC10 [1, 13]: 25.2 µM
- MMP inhibition log(EC10 (M)) [1, 14]: -4.60 M
- Cytotoxicity Incucyte IC10 (AREc32 cells [2]; human): 106 µM
- log Kow [L/L] [7]: 3.7 L/L
- Cytotoxicity ImageExpress IC10 (AREc32 cells [4]; human): 138 µM
- Cytotoxicity ImageExpress log(IC10 (M)) (AREc32 cells [4]; human): -3.86 M
- EC (induction ratio 1.5) [8]: > 0.000226 M
- SRcytotoxicity ([5]; human): 5.5

Reference: article PMC10993414, “Water Quality Monitoring with the Multiplexed Assay MitoOxTox for Mitochondrial Toxicity, Oxidative Stress Response, and Cytotoxicity in AREc32 Cells” (Environmental Science & Technology, 2024)
